The source of these data is ChEMBL document CHEMBL5226288, “A perspective on medicinal chemistry approaches towards adenomatous polyposis coli and Wnt signal based colorectal cancer inhibitors” (Eur J Med Chem, 2021).

As a reminder, the pIC50 is −log10 of the IC50, conventionally taken in molar units. A word on the GI50: it is the concentration giving 50% growth inhibition. Usually pEC50 stands for the negative decadic logarithm of the EC50, by convention in mol/L.

For experiment [1], the system named is HCT-116. The experiment is described as follows: Antiproliferative activity against human HCT-116 cells assessed as reduction in cell proliferation incubated for 72 hrs by CellTiter-Glo assay. In kind it is functional, cell-based. To be noted: HCT-116, 72 h. A general note: ATP-based viability assays read luminescence as a measure of living cells.
The test system of experiment [2] is LoVo. As to the kind of experiment: Anticancer activity against human LoVo cells assessed as reduction in cell viability incubated for 24 hrs by MTT assay. In kind it is functional, cell-based. In general terms: Tetrazolium assays rely on reduction of a dye to a coloured formazan, in cell work by metabolically active cells.
In experiment [3] the test system is SW480. The experiment is described as follows: Anticancer activity against human SW480 cells assessed as reduction in cell viability incubated for 24 hrs by MTT assay. In kind it is functional, cell-based. To be noted: SW480, 24 h.
Experiment [4] has as its system SW48. The experiment is described as follows: Anticancer activity against human SW48 cells assessed as cell growth inhibition. In kind it is functional, cell-based.
Experiment [5] has as its system HCT-116. As to the kind of experiment: Anticancer activity against human HCT-116 cells assessed as reduction in cell viability incubated for 48 hrs by MTT assay. It counts as functional, cell-based. To be noted: HCT-116, 48 h.
In experiment [6] the test system is DLD-1. As to the kind of experiment: Anticancer activity against human DLD-1 cells assessed as reduction in cell viability incubated for 48 hrs by MTT assay. In kind it is functional, cell-based. The note with it: DLD-1, 48 h.
In experiment [7] the test system is SW480. The experiment is described as follows: Anticancer activity against human SW480 cells assessed as reduction in cell viability incubated for 12 to 24 hrs by MTS assay. It counts as functional, cell-based.
The test system of experiment [8] is HT-29. As to the kind of experiment: Antiproliferative activity against human HT-29 cells assessed as reduction in cell viability. In kind it is functional, cell-based.
Experiment [9] deals with DLD-1. As to the kind of experiment: Antiproliferative activity against human DLD-1 cells assessed as reduction in cell viability by WST assay. It counts as functional, cell-based.
Experiment [10] can be described thus: Inhibition of Wnt signalling in human HEK293T cells expressing Topflash and renilla luciferase reporter gene incubated for 24 hrs by Dual-luciferase assay. In kind it is cell-based. To be noted: HEK-293T. For orientation: Reporter assays use an easily measured gene product as a stand-in for the process of interest.
Experiment [11] deals with LoVo. As to the kind of experiment: Antiproliferative activity against human LoVo cells assessed as reduction in cell viability. It counts as functional, cell-based.
For experiment [12], the system named is SW480. As to the kind of experiment: Antiproliferative activity against human SW480 cells expressing firefly and renilla luciferase assessed as reduction in cell growth incubated for 3 hrs by TOPFlash luciferase assay. It counts as functional, cell-based. The note with it: SW480, 3 h.
The test system of experiment [13] is HCT-116. As to the kind of experiment: Antiproliferative activity against human HCT-116 cells assessed as reduction in cell viability incubated for 72 hrs by MTS assay. To be noted: HCT-116, 72 h. In kind it is functional, cell-based.
Experiment [14] has as its system SW480. As to the kind of experiment: Antiproliferative activity against human SW480 cells assessed as reduction in cell viability incubated for 24 hrs by CCK-8 assay. It counts as functional, cell-based. To be noted: SW480, 24 h.
Experiment [15] has as its system SW480. The experiment is described as follows: Anticancer activity against human SW480 cells assessed as cell growth inhibition incubated for 24 hrs by MTS assay. In kind it is functional.
Experiment [16] has as its system SW480. The experiment is described as follows: Anticancer activity against human SW480 cells assessed as reduction in cell proliferation incubated for 48 hrs by sulforhodamine B assay. It counts as functional, cell-based. To be noted: SW480, 48 h.
The test system of experiment [17] is HCT-116. As to the kind of experiment: Anticancer activity against human HCT-116 cells assessed as reduction in cell proliferation incubated for 48 hrs by sulforhodamine B assay. It counts as functional, cell-based. The note with it: HCT-116, 48 h.
Experiment [18] has as its system SW480. The experiment is described as follows: Anticancer activity against human SW480 cells assessed as reduction in cell viability incubated for 72 hrs by MTT assay. The note with it: SW480, 72 h. It counts as functional, cell-based.
Experiment [19] deals with DNA polymerase beta (Homo sapiens, UniProt P06746). As to the kind of experiment: Inhibition of human DNA polymerase beta by fluorescence anisotropy.
Experiment [20] deals with Ubiquitin carboxyl-terminal hydrolase 7 (Homo sapiens, UniProt Q93009). The experiment is described as follows: Inhibition of recombinant full length wild type human Flag-tagged USP7 expressed in human HEK293 cells using Ub-AMC as substrate by fluorometric assay.
Experiment [21] concerns the target CBP/beta catenin (Homo sapiens, UniProt P35222+Q92793). The experiment is described as follows: Antagonist activity at CBP/beta-catenin (unknown origin) protein-protein interaction. In kind it is protein assay.
Experiment [22] deals with Catenin beta-1/Transcription factor 7 (Homo sapiens, UniProt P35222+P36402). As to the kind of experiment: Inhibition of human beta-catenin (142 to 686 residues)/human TCF (7 to 51 residues) protein-protein interaction incubated for 3 hrs by fluorescence polarization assay.
Experiment [23] deals with HCT-116. As to the kind of experiment: Anticancer activity against human HCT-116 cells assessed as reduction in cell viability incubated for 72 hrs. In kind it is functional, cell-based. To be noted: HCT-116, 72 h.
Experiment [24] has as its system SW480. As to the kind of experiment: Anticancer activity against human SW480 cells assessed as reduction in cell viability incubated for 72 hrs. To be noted: SW480, 72 h. In kind it is functional, cell-based.
Experiment [25] deals with SW-620. The experiment is described as follows: Anticancer activity against human SW-620 cells assessed as reduction in cell viability incubated for 24 hrs by CCK-8 assay. It counts as functional, cell-based. The note with it: SW-620, 24 h.
Experiment [26] concerns KM12. The experiment is described as follows: Anticancer activity against human KM12 cells assessed as reduction in cell viability incubated for 24 hrs by CCK-8 assay. It counts as functional, cell-based. The note with it: KM12, 24 h.
A short description of experiment [27]: Inhibition of Wnt1 signalling in human HCT-116 cells expressing ST-Luc and renilla firefly luciferase incubated for 24 hrs by dual-luciferase reporter assay. It counts as cell-based. To be noted: HCT-116, 24 h.
The nature of experiment [28]: Inhibition of Wnt1 signalling in human SW480 cells expressing ST-Luc and renilla firefly luciferase incubated for 24 hrs by dual-luciferase reporter assay. In kind it is cell-based. To be noted: SW480, 24 h.
The subject of experiment [29] is SW480. The experiment is described as follows: Antiproliferative activity against human SW480 cells assessed as reduction in cell proliferation incubated for 12 to 24 hrs by CCK-8 assay. In kind it is functional, cell-based.
The test system of experiment [30] is HCT-116. As to the kind of experiment: Antiproliferative activity against human HCT-116 cells assessed as reduction in cell proliferation incubated for 12 to 24 hrs by CCK-8 assay. It counts as functional, cell-based.
The nature of experiment [31]: Anticancer activity against human colorectal cancer cell lines assessed as reduction in cell viability incubated for 24 to 72 hrs by MTT assay. It counts as functional, cell-based.

pEC50, pIC50: −log10 of the molar value. In brackets after ≈: the same amount, converted by molar mass. Non-standard residues stand in square brackets, D forms with d. Residues, ends and D or L forms follow the SMILES beside them. Hica(2S) = CC(C)C[C@H](O)C(=O)O; NMeV = CN[C@H](C(=O)O)C(C)C; NMeA = CN[C@@H](C)C(=O)O; βAla = NCCC(=O)O

Ubiquitin carboxyl-terminal hydrolase 7, sequence (Q93009 whole entry): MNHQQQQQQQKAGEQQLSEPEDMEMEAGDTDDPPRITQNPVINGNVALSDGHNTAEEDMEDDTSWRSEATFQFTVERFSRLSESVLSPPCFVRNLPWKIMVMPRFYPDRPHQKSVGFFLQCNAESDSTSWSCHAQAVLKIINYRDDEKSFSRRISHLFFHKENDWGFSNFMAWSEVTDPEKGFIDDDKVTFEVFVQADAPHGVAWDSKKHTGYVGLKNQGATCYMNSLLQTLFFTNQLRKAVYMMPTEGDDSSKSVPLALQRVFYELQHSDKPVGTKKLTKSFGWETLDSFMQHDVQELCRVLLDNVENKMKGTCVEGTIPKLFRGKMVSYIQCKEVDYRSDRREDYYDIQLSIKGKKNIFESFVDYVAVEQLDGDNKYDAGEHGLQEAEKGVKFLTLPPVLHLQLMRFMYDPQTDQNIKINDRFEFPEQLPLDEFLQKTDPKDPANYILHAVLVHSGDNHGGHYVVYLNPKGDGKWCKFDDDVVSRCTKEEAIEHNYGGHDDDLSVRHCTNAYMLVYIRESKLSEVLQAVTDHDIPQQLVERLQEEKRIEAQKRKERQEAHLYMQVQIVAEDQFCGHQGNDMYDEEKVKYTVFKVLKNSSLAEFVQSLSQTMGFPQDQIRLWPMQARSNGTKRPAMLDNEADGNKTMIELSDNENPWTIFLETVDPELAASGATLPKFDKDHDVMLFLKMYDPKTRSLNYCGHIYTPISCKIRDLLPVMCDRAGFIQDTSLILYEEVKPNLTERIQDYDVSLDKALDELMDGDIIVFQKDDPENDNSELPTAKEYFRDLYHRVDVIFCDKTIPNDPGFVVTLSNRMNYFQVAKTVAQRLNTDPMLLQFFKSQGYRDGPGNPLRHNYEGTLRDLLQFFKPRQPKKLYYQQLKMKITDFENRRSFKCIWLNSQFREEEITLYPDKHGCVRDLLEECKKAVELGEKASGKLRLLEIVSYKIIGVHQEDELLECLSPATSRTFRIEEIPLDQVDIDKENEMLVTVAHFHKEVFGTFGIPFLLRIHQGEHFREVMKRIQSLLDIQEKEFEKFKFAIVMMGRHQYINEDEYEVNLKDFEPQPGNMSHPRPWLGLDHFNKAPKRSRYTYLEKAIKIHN
CBP/beta catenin, sequence (Q92793 whole entry, the tested form may be a part): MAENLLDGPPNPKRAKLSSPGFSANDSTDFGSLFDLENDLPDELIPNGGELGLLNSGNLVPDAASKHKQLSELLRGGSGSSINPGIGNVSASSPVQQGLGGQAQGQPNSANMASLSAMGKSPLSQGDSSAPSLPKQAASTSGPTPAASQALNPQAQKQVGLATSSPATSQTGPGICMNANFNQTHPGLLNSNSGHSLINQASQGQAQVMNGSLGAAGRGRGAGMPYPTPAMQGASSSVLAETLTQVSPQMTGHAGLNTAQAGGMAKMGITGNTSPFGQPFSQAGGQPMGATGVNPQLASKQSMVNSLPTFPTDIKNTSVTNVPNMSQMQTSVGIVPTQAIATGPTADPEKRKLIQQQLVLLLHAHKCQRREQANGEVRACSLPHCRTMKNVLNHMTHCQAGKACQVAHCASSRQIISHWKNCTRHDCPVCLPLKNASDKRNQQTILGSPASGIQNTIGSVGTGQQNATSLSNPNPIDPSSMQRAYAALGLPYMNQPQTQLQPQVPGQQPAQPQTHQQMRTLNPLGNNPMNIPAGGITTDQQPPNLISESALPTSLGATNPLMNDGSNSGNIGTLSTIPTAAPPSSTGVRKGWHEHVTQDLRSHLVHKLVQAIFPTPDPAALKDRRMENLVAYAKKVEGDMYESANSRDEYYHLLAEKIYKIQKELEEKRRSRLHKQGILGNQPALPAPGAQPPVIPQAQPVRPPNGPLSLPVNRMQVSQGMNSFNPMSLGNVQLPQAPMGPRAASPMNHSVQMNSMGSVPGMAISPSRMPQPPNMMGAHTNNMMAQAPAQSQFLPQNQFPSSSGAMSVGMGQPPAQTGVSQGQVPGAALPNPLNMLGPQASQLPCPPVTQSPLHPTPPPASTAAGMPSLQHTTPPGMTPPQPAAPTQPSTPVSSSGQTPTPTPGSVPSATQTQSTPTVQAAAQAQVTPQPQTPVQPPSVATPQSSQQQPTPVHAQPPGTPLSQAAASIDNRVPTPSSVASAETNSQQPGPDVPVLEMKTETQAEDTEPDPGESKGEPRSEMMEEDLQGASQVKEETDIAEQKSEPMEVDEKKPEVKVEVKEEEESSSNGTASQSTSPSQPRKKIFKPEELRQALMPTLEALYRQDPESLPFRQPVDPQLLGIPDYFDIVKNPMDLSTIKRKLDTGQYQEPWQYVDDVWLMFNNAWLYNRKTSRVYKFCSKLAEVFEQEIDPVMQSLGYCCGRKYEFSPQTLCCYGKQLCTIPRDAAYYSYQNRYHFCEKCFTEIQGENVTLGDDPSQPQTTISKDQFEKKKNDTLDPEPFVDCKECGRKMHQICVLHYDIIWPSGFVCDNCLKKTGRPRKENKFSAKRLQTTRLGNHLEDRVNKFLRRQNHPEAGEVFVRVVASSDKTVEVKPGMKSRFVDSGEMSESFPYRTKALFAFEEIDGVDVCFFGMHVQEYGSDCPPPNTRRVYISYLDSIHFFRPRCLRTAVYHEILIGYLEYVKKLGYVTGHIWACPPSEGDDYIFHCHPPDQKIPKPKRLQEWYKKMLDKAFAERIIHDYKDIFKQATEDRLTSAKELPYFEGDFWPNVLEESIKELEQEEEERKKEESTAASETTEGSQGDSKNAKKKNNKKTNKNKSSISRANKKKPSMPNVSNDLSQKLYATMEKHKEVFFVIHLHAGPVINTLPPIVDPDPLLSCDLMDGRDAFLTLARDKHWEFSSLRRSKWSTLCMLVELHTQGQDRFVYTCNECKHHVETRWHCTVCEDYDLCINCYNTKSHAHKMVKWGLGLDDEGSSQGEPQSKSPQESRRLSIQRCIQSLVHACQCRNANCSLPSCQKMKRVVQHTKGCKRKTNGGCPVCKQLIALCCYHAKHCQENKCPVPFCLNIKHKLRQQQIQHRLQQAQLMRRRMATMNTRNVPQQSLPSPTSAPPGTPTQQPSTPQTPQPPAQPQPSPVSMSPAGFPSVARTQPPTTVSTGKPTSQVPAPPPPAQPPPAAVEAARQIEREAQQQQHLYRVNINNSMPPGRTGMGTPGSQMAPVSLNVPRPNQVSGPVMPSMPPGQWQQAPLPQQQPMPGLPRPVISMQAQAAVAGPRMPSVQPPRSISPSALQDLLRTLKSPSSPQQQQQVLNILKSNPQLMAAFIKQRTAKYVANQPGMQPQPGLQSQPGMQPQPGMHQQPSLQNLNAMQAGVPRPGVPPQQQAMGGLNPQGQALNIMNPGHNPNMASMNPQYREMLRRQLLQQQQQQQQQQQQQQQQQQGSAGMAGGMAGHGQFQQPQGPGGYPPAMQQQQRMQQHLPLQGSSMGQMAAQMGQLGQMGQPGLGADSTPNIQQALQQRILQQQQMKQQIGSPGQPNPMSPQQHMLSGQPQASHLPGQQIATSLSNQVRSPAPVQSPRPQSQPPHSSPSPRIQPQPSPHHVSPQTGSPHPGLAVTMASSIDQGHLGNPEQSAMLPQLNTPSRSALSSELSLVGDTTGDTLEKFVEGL
CBP/beta catenin, sequence (P35222 whole entry, the tested form may be a part): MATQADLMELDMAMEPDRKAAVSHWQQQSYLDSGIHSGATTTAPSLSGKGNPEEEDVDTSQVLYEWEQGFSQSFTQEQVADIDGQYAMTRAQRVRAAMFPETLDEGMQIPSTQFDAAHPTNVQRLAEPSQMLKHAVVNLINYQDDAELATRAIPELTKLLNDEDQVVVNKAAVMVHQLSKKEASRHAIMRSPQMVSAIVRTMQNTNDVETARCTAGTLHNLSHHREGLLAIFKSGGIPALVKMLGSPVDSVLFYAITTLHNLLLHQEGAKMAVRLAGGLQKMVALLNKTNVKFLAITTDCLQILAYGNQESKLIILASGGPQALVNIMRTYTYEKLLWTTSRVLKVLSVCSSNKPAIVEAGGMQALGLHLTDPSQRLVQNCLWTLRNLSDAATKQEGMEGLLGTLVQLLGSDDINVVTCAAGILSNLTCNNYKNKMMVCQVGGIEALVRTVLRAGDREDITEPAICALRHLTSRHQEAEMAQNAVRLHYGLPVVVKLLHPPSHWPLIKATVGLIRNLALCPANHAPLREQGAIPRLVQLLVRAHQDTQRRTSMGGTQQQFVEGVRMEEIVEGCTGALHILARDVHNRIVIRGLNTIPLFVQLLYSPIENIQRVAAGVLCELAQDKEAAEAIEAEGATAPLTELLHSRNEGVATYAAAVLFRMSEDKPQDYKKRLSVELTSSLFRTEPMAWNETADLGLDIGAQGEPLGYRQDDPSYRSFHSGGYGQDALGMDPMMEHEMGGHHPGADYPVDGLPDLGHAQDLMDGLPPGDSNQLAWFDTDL
Catenin beta-1/Transcription factor 7, sequence (P36402 whole entry, the tested form may be a part): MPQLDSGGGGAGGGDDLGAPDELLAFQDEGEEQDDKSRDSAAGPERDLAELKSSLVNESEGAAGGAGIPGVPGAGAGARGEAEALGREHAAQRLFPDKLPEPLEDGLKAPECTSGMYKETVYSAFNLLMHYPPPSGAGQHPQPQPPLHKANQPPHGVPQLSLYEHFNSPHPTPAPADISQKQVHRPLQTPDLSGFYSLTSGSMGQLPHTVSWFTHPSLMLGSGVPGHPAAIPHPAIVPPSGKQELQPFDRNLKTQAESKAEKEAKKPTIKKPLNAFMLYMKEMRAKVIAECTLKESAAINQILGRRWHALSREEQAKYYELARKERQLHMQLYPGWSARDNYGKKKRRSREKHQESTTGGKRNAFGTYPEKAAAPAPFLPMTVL
Catenin beta-1/Transcription factor 7, sequence (P35222 whole entry, the tested form may be a part): as the sequence (P35222 whole entry, the tested form may be a part) above

`CC(=O)c1cc2c(o1)C(=O)c1ccccc1C2=O` [NAPABUCASIN]: the negative-log IC50 (pIC50) in experiment [1] was 6.52.

For the molecule `C[C@@H]1O[C@@H](O[C@H]2[C@H](O[C@H]3[C@H](O[C@H]4CC[C@@]5(C)C6CC=C7[C@@H]8CC(C)(C)CC[C@]8(C(=O)O)CC[C@]7(C)C6(C)CC[C@H]5C4(C)C)OC[C@H](O)[C@@H]3O)O[C@H](CO)[C@@H](O)[C@@H]2O)[C@H](O)[C@H](O)[C@H]1O` (stereo partly specified), the pIC50 was 6.00 in experiment [2] and 5.74 in experiment [3].

As to `COc1cc(OC)c2c(c1)O[C@@]1(c3ccc(Br)cc3)[C@H](c3ccccc3)C[C@@H](O)[C@@]21O`, in experiment [4], the pIC50 was 8.00.

On to `CCCCCCCCCCCCCC(C(=O)O)C(O)(CC(=O)OC)C(=O)O` (stereo unspecified), for which the pIC50 in experiment [5] and in experiment [6] was 4.00 throughout.

Turning to `O=C(Nc1ccc([N+](=O)[O-])cc1Cl)c1cc(Cl)ccc1O` [NICLOSAMIDE], the pIC50 in [7] is 6.00.

With `Nc1ccc(O)c(C(=O)O)c1` [MESALAMINE], the pIC50 in experiment [8] was 1.70.

For the molecule `O=C1[C@@H](Cc2ccccc2)N2C(=O)CCN(C(=O)NCc3ccccc3)[C@@H]2CN1Cc1cccc2ccccc12`, the negative-log IC50 (pIC50) in experiment [9] was 4.67.

Regarding `CCn1c2ccccc2c2cc(C(=O)OC(C)C)nc(-c3cccc4ccccc34)c21`, the pIC50 in [10] was 5.55.

`COc1cc2c(cc1OC)[C@@]13CCN4CC5=CCO[C@H]6CC(=O)N2[C@H]1[C@H]6[C@H]5C[C@H]43` [BRUCINE]: the pIC50 in [11] is 4.74.

On to `O=C(NCc1ccccc1)N1CCC(=O)N2C1CN(Cc1cccc3ccccc13)C[C@@H]2Cc1ccc(O)cc1` (stereo partly specified), for which the negative logarithm of the IC50 (pIC50) in [12] was 5.09.

In the case of `C=CCN1CC(=O)N2C(CN(Cc3cccc4cn(C)nc34)C[C@@H]2Cc2ccc(OP(=O)(O)O)cc2)N1C(=O)NCc1ccccc1` (stereo partly specified), in experiment [13], the negative-log IC50 (pIC50) is 6.04.

Turning to `CC(C)[C@]12O[C@H]1[C@@H]1O[C@]13[C@]1(O[C@H]1C[C@H]1C4=C(CC[C@@]13C)C(=O)OC4)[C@@H]2O` [TRIPTOLIDE], in experiment [14], the negative-log IC50 (pIC50) is 7.30.

In the case of `CN1CC(=O)N2C(CN(Cc3cccc4ccccc34)C[C@@H]2Cc2ccc(O)cc2)N1C(=O)NCc1ccccc1` (stereo partly specified), the GI50 in [15] came out at 0.98 µg/mL (≈ 1.78 µM).

For `CC[C@H](C)[C@@H]1NC(=O)[C@@H]2CCCN2C(=O)[C@H](CC(C)C)OC(=O)CCNC(=O)[C@H](C)N(C)C(=O)[C@H](C(C)C)N(C)C1=O` [destruxin B] (cyclo([Hica(2S)]PI[NMeV][NMeA][βAla])), the negative logarithm of the IC50 (pIC50) in [16] and in experiment [17] was 5.20 each time.

Regarding `C[C@@H]1O[C@H]2O[C@H]3[C@@H](OC[C@H](O)[C@@H]3O)OC(=O)[C@@H]3CC(C)(C)C[C@H]4C5=CC[C@@H]6[C@@]7(C)C[C@H](O)[C@H](O[C@@H]8O[C@H](CO)[C@@H](O)[C@H](O)[C@H]8O[C@@H]8OC[C@H](OC(=O)C[C@](C)(O)CC(=O)O[C@@H]1[C@@H](O[C@@H]1OC[C@@H](O)[C@H](O)[C@H]1O)[C@H]2O)[C@H](O)[C@H]8O)[C@@](C)(CO)[C@@H]7CC[C@@]6(C)[C@]5(C)CCC34`, the pIC50 in experiment [18] was 4.40.

`Cc1ccc(Nc2nc(NS(=O)(=O)c3cc(C)c(C)cc3C)n[nH]2)cc1` gave a pIC50 in [19] of 5.30.

`C=C1C(=O)O[C@@H]2[C@H]3O[C@]3(C)CC/C=C(\C)CC[C@@H]12`: the pIC50 in experiment [20] was 5.18.

The molecule `C[C@H]1[C@H]2N(C(=O)CN(C)N2C(=O)NCc2ccccc2)[C@@H](Cc2ccc(OP(=O)(O)O)cc2)C(=O)N1Cc1cccc2cccnc12` showed a pIC50 in experiment [21] of 6.82.

As to `Cn1ncc2cc(CCc3nn[nH]n3)ccc21`, in experiment [22], the negative-log IC50 (pIC50) was 5.50.

In the case of `Cc1cc(/C=C/c2ccc3cc(N(C)C)ccc3[n+]2C)c(C)n1-c1ccccc1`, the values for the negative logarithm of the EC50 (pEC50) in experiment [23] and in [24] were 7.37 and 7.25, respectively.

Turning to `CO[C@@H]1C[C@@H](C[C@H]2CC[C@H](C)[C@H]([C@@H](C)C(=O)O)O2)O[C@]2(O[C@](C)([C@H]3CC[C@@](C)([C@@H]4O[C@@H]([C@H]5O[C@@](O)(CO)[C@H](C)C[C@@H]5C)C[C@@H]4C)O3)C[C@H]2C)[C@@H]1C` [NIGERICIN], the pIC50 was 5.86 in experiment [25] and 5.07 in [26].

With `CC[C@]12CCCN3CCc4c(n(c5ccccc45)[C@@H](c4ccc(O)c5c4N[C@H]4CC[C@]6(CC)CCCN7CC[C@]54[C@@H]76)C1)C32` (stereo partly specified), the figures for the negative-log IC50 (pIC50) in experiment [27] and in experiment [28] were 5.35 and 5.31, respectively.

Turning to `O=c1[nH]c2ccccc2n1C1CCN(CCCC(c2ccc(F)cc2)c2ccc(F)cc2)CC1` [PIMOZIDE], the pIC50 in [29] and in experiment [30] was 5.00 in each case.

With `C[C@H]1[C@H](OC(=O)CCC(=O)O)O[C@@H]2O[C@@]3(C)CC[C@H]4[C@H](C)CC[C@@H]1[C@@]24OO3` [ARTESUNATE], in experiment [31], the negative-log IC50 (pIC50) was 4.69.
